Tests used:
RAW264.7 cells = assay: LG-lysyl adduct formation on histones in COX-2-stimulated, AA-treated RAW264.7 cells (LC/ESI/MS/MS); assay type: cell-based, mouse; details: for LG adduct formation on histones (LG-lysyl lactam adduct): 500 μM scavenger pretreated 45 min, 20 μM AA 1 h, n=2
Experimental: (§1) To stimulate COX-2 expression, A549 or RAW264.7 cells were treated overnight with 5 ng/mL IL-1β (A549) or 10 μg/mL LPS and 10 U/mL IFNγ (RAW264.7) in serum-free medium. When indicated, cells were pretreated with indomethacin, aldehyde scavengers (glucosamine, 3-MoSA, PPM or EtSA), or vehicle (ethanol for indomethacin, H2O for scavengers) for 45 min, and then given 20 μM arachidonic acid (AA) or DMSO vehicle for 1 h before lysing.
Cultured cells were lysed in hypotonic buffer (10 mM Tris/10 mM NaCl/3 mM MgCl2) containing 1 mM pyridoxamine and 100 μM indomethacin to prevent the artifactual formation of LGE2 during the lytic process. After letting cells swell on ice, membranes were disrupted by addition of Triton X-100 (0.5% final concentration) and vortexing. Nuclei were isolated by centrifugation for 10 min at 1000×g, and the resulting pellet washed with PBS. Histones were extracted in 0.4 N H2SO4, precipitated with trichloracetic acid, and washed with acetone. […] Histones were resolubilized in dilute NaOH, and pH neutralized with HCl. Protein concentration was determined using the method of Bradford. For tissue, a portion of frozen liver was homogenized in buffer containing 40 mM sodium citrate, and 1% Triton X-100 with 3 mM Trolox and 100 μM indomethacin. The supernatant was separated from settled debris, and nuclei were pelleted at 500×g and washed. Nuclear pellets were frequently transferred to fresh tubes to avoid contamination by floating lipid debris; any remaining was removed with a cotton swab. Histones were extracted as above. All centrifugation steps were carried out at 4° C.
Histone samples were prepared for mass spectrometry by addition of ammonium bicarbonate to 5 mM final concentration before digesting to single amino acids by protease step-digestion as previously described. In the case of immunoblots, proteins were digested directly off the nitrocellulose through incubation of the nitrocellulose strip in 30 μg/mL Pronase in ammonium bicarbonate buffer, and later addition of aminopeptidase. All samples were centrifuged at 2000×g for 10 min. after final digestion to remove precipitate, spiked with 0.2 ng ^13C-lysyl-lactam internal standard, and purified on prepared tC18 cartridges (Waters Corp., Milford, Mass.). Samples on tC18 cartridges were washed with water, then 30% methanol, before being eluted in 80% methanol and concentrated by evaporation. Samples were evaluated by electrospray ionization (ESI) LC/MS/MS on a ThermoFisher TSQ Quantum triple quadrapole mass spectrometer in positive ion mode and quantitated by isotopic dilution as previously described, with the exception of a reduced flow rate of 0.1 mL/min.

A549 cells = assay: LG-lysyl adduct formation on histones in COX-2-stimulated, AA-treated A549 cells (LC/ESI/MS/MS); assay type: cell-based, human
Experimental: as §1
Cultured cells were lysed in hypotonic buffer (10 mM Tris/10 mM NaCl/3 mM MgCl2) containing 1 mM pyridoxamine and 100 μM indomethacin to prevent the artifactual formation of LGE2 during the lytic process. After letting cells swell on ice, membranes were disrupted by addition of Triton X-100 (0.5% final concentration) and vortexing. […] Protein concentration was determined using the method of Bradford. […]
Histone samples were prepared for mass spectrometry by addition of ammonium bicarbonate to 5 mM final concentration before digesting to single amino acids by protease step-digestion as previously described. […] Samples were evaluated by electrospray ionization (ESI) LC/MS/MS on a ThermoFisher TSQ Quantum triple quadrapole mass spectrometer in positive ion mode and quantitated by isotopic dilution as previously described, with the exception of a reduced flow rate of 0.1 mL/min.

COX-2 = assay: PGE2 production in cell media as measure of COX-2 activity (GC/MS), A549 cells; assay type: cell-based, human
Experimental: as §1
A sample of cellular media was taken just prior to lysis and centrifuged to remove any cellular debris. For PGE2 analysis, samples were spiked with 2 ng of [^2H7] PGE2 as an internal standard. Prostaglandins were isolated and derivatized for analysis by GC/MS, operating in negative ion chemical ionization (NICI) mode and monitoring selected ions as previously described. For the […] internal standard, m/z=528. To account for the deuterium-protium exchange at the position C12 of [^2H7] PGE2, the summation of the signals obtained at m/z=530, m/z=531 and m/z=532 was performed.

histone H4 = assay: Salt extraction of A549 nuclei, histone H4 solubility (Western blot); assay type: cell-based, human; details: A549 cells, 500 μM EtSA 45 min prior to 20 μM AA; 0.6-1.2 M NaCl
Experimental: 60-80% confluent A549 cells were stimulated and treated with AA±500 μM EtSA before scraping cells in lysis media for nuclear isolation as above. After addition of Tritox X-100 and vortexing, 1.5 mL of each sample was aliquoted into an eppendorf and centrifuged to separate nuclei. Pellets were washed with PBS and all buffer removed. Nuclear pellets were resuspended in extraction buffer containing 0.6M, 0.9M, 1.2M or 1.5M NaCl (with 10 mM Tris, pH 7.5, 3 mM MgCl2, 0.5% NP-40, and protease inhibitor cocktail) and incubated 10 min on ice. Following this extraction period, the nuclei were centrifuged at 16,000×g to obtain the soluble fraction. This was sonicated, denatured at 95° C., and analyzed by SDS-PAGE and Western blotting, using Ponceau stain to visualize proteins and confirm equal loading, and anti-H4 antibody (Abcam, Cambridge, Mass.).

With `CCc1ccc(O)c(CN)c1` [EtSA, 5-ethylsalicylamine] the “LG adduct formation on histones (LG-lysyl lactam adduct)” value (RAW264.7 cells; RAW264.7 cells) was “most effectively blocked adduct formation”, the “protecting histones from modification by levuglandins, comparison with other scavengers” value (RAW264.7 cells; in comparison with salicylamine, pyridoxamine and their other analogues) was “most potent in protecting histones from modification by levuglandins” and the LG-histone adduct formation (A549 cells; stimulated A549 cells, 30, 300 or 1000 μM EtSA, 20 μM AA 1 h) was “inhibited LG-histone adduct formation”. For the same molecule, the PGE2 production (COX-2; highest concentration tested (1000 μM EtSA), 20 μM AA 1 h) was “without affecting PGE2 production”, the PGE2 production (COX-2; lower doses of EtSA (data not shown)) was “no effect on PGE2 production” and the “histone H4 elution at lower salt concentrations (DNA-histone interaction)” value (histone H4) was “reversed”.
In the case of `COc1ccc2c(c1)c(CC(=O)O)c(C)n2C(=O)c1ccc(Cl)cc1` [indomethacin, reference compound], the LG-histone adduct formation (RAW264.7 cells; RAW264.7 cells, 50 μM indomethacin preincubated 45 min, 20 μM AA) is reported as “blocked” and the LG-histone adduct formation (A549 cells; A549 cells, 50 μM indomethacin preincubated 45 min, 20 μM AA) is reported as “blocked”.
In the case of “pentylpyridoxamine [PPM, reference compound]”, the “LG adduct formation on histones (LG-lysyl lactam adduct)” value (RAW264.7 cells; RAW264.7 cells) is reported as “partially inhibited histone adduct formation, but was much less potent than 5-ethylsalicylamine”.

Reference: patent US20150265584A1, “LEVUGLANDIN ADDUCTS HISTONE H4 IN A CYCLOOXYGENASE-2-DEPENDENT MANNER, ALTERING ITS INTERACTION WITH DNA” (VANDERBILT UNIVERSITY, priority 2014, published 2015)
